From US8778927B2, “Smoothened antagonism for the treatment of hedgehog pathway-related disorders” (Novartis AG, priority 2008, dated 2014)
Where “and” joins values, the source holds several entries; their conditions need not be identical. Equal entries are not always repeated. Entries after “also recorded” stand apart in the source; their conditions may differ. Blank lines part the entries; values can stand above or below the compound they belong to.

Columns and labels:
[1] = system: sensitive medulloblastoma tumor cells; assay: ex-vivo medulloblastoma proliferation assay (3H thymidine, 48 h), sensitive tumor cells; assay type: cell-based; settings: Mus musculus, Sensitive tumor, Table 3
Procedure: (§1) The effect of statins (e.g., simvastatin, flustatin) on the proliferation of medulloblastoma cells derived from sensitive and resistant Ptch+/− cells was evaluated by using an “ex-vivo medulloblastoma proliferation assay.” Using Ptch+/−p53−/−, Ptch+/−Hic+/− or Ptch+/− medulloblastoma tumors freshly harvested from allografted nude mice, we have developed a short-term 48 h proliferation assay that enables us to assess the in vitro potency of Smo inhibitors. The read-out for proliferation uses incorporation of 3H thymidine. The assay reflects the in vivo sensitivity of tumor cells to Compound 1.
(§2) The effect of PI3K inhibitors (e.g., compounds such as Compound A) on the proliferation of medulloblastoma cells derived from sensitive and resistant medulloblastoma cells was evaluated by using an “ex-vivo medulloblastoma proliferation assay,” as described above.

[2] = system: resistant medulloblastoma tumor cells; assay: ex-vivo medulloblastoma proliferation assay (3H thymidine, 48 h), resistant tumor cells; assay type: cell-based, mouse
Procedure: as §1, §2

[3] = system: Akt and S6 phosphorylation; assay: Western blot of ex-vivo medulloblastoma assay; assay type: cell-based, mouse; settings: sensitive and resistant cells, FIG. 5
[4] = system: Ptch+/−Hic+/− medulloblastoma allograft; assay: combination of Smo inhibitor and PI3K inhibitor in Ptch+/−Hic+/− medulloblastoma allograft model; assay type: in vivo, mouse
From the text: Mouse medulloblastoma cells (1.0-5.0×10^6), dissociated directly from tumor fragments originally derived from spontaneously arising medulloblastomas in Ptch+/-p53-/-, Ptch+/-Hic+/- or Ptch+/- mice, were inoculated subcutaneously into the right flank of Harlan nu/nu mice. Treatment was initiated approximately 7-10 days post implantation. Animals were randomized into treatment groups with similar mean tumor volumes that ranged from approximately 250-300 mm3. Tumor volumes (mm3) and body weights (g) were recorded two or three times per week from all groups for analysis. Dose was body weight adjusted at time of dosing. Comparisons between treatment groups was performed using a non-parametric Kruskal-Wallis/Wilcoxon Rank Sum Test. Tumors were calipered in two dimensions, and the volumes were calculated using the formula: (length×width2)/2, where length is the longer of the two measurements and width is the shorter one. […] A partial responder (PR) was defined as an animal whose tumor was less than 50% of the initial tumor volume by the end of the study. An animal with no palpable tumor by the end of study is defined as a complete responder (CR). Next, a combination of Compound 1 and Compound A was explored in the Ptch+/-Hic+/- medulloblastoma allograft model. […] Animals treated with vehicle control and with compound A had to be sacrificed around day 20 and 25, respectively, because their tumor volume reached 1500 mm3. […] Similar results were obtained for animals treated with Compound 1 alone for the first 10 days, followed by single agent treatment with Compound A (data not shown). […] Next, a combination of Compound 1 and Compound B was explored in the Ptch+/-Hic+/- medulloblastoma allograft model. […] Animals treated with vehicle control and with compound B reached the endpoint around day 12 to 15, respectively, because their tumor volume reached 700 mm3.

[5] = system: Ptch+/−Hic+/− medulloblastoma allograft; assay: Ptch+/−Hic+/− medulloblastoma allograft model, continuous dosing; assay type: in vivo, mouse; settings: for number of sustained complete regressions: dosed day 10 to day 56, day 56
From the text: (§3) Mouse medulloblastoma cells (1.0−5.0×10^6), dissociated directly from tumor fragments originally derived from spontaneously arising medulloblastomas in Ptch+/−p53−/−, Ptch+/−Hic+/− or Ptch+/− mice, were inoculated subcutaneously into the right flank of Harlan nu/nu mice. Treatment was initiated approximately 7-10 days post implantation. Animals were randomized into treatment groups with similar mean tumor volumes that ranged from approximately 250-300 mm3. Tumor volumes (mm3) and body weights (g) were recorded two or three times per week from all groups for analysis. Dose was body weight adjusted at time of dosing. Comparisons between treatment groups was performed using a non-parametric Kruskal-Wallis/Wilcoxon Rank Sum Test.
(§4) Tumors were calipered in two dimensions, and the volumes were calculated using the formula: (length×width2)/2, where length is the longer of the two measurements and width is the shorter one. Percent treatment/control (% T/C) values were calculated using the following formula: % T/C=100×ΔTf−i/ΔCf−i if ΔTf−i>0, % T/T0=100×ΔTf−i/T0 if ΔTf−i<0 (regression). A partial responder (PR) was defined as an animal whose tumor was less than 50% of the initial tumor volume by the end of the study. An animal with no palpable tumor by the end of study is defined as a complete responder (CR).
Treatments started on day 7 post implantation (5 million cells/animal). Compound 1 was administered po at 5 mg/kg bid, 10 mg/kg bid, 20 mg/kg qd, 20 mg/kg bid, 40 mg/kg bid and 80 mg/kg bid for the length of study. Compound 2 was administered at 100 mg/kg bid for the length of study. Vehicle control of Compound 1 was 0.5% methylcellulose 0.5% Tween 80 in water. The initial group size consisted of 8 animals. The vehicle group was taken down 10 days after treatment (tumors greater than 10% of mouse body weight).
Sustained regressions listed in the Table 1 represent number of complete responses still present at the end of study on day 47.
Two additional Smo inhibitors, Compound 3 and Compound 4 were evaluated in follow-up studies in the Ptch+/−Hic+/− model upon continous dosing.

[6] = system: Ptch+/−p53−/− medulloblastoma allograft; assay: Ptch+/−p53−/− medulloblastoma allograft model, continuous dosing; assay type: in vivo, mouse; settings: 100 mg/kg bid, 25 days, FIG. 1
From the text: as §3
as §4, with “(CR). […]” for “(CR).”

[7] = system: Ptch+/− medulloblastoma allograft; assay: Ptch+/− medulloblastoma allograft model, continuous dosing; assay type: in vivo, mouse; settings: 100 mg/kg bid, day 48
From the text: as §3, §4
Treatments started on day 7 post implantation (5 million cells/animal). Compound 1 was administered po at 10 mg/kg qd, 20 mg/kg qd, 40 mg/kg qd, 80 mg/kg qd and 160 mg/kg qd for the length of study. Compound 2 was administered at 100 mg/kg bid for the length of study. Vehicle control of Compound 1 was 0.5% methylcellulose 0.5% Tween 80 in water. The initial group size consisted of 8 animals. The vehicle group was taken down 7 days after treatment (tumors greater than 10% of mouse body weight). Similar resistance was seen to that observed with the Ptc+/−Hic+/− model, with a subset of the complete responders growing back and others showing complete regression (Table 2). Sustained regression listed in Table 2 represent number of complete regressions still present at the end of study on day 48.

[8] = Mus musculus, Resistant tumor, Table 3

- IC50 [1]: 200 nM
- IC50 [2, 8]: 220 nM
- IC50 ([2]; Mus musculus, ptch+/− Hic+/−, Resistant, Table 4): 300 nM
- IC50 ([2]; ptch+/− Hic+/−, Resistant, Table 4): 170 nM and 150 nM
Compound: Nc1cc(C(F)(F)F)c(-c2cc(N3CCOCC3)nc(N3CCOCC3)n2)cn1 [Compound A, 5-(2,6-di-morpholin-4-yl-pyrimidin-4-yl)-4-trifluoromethyl-pyridin-2-ylamine]
- inhibition of proliferation, sensitive compared with resistant tumors ([2]; sensitive and resistant tumors): inhibited both sensitive and resistant tumors with similar IC50s
- inhibition of Akt and S6 phosphorylation [3]: inhibits Akt and S6 phosphorylation in both sensitive and resistant cells; also recorded: inhibited Akt and S6 phosphorylation both in sensitive and resistant tumors at similar concentrations
- effect on tumor growth ([4]; 60 mg/kg qd, FIG. 6A): only a moderate effect on tumor growth compared to vehicle control
- time to endpoint (tumor volume >1500 mm3) ([4]; 60 mg/kg qd, FIG. 6B): ~25 days

Compound: Cc1c(Cc2ccccc2)nnc(N2CCN(c3cnc(C(C)(C)O)cn3)[C@H](C)C2)c1C [Compound 3, 2-[(R)-4-(6-Benzyl-4,5-dimethyl-pyridazin-3-yl)-2-methyl-3,4,5,6-tetrahydro-2H-[1,2]bipyrazinyl-5′-yl]-propan-2-ol]
- number of sustained complete regressions ([5]; 40 mg/kg bid): 3/8
- number of sustained complete regressions ([5]; 40 mg/kg qd): 0/8
- number of sustained complete regressions ([5]; 60 mg/kg qd): 0/8
- number of sustained complete regressions ([5]; 80 mg/kg qd): 0/8
- number of sustained complete regressions ([5]; 100 mg/kg qd): 3/8
- tumor response on continuous dosing ([5]; follow-up studies, continuous dosing): initially induced tumor regression followed by tumor regrowth in the presence of compound

Compound: COc1cc(OC)cc(C(=O)Nc2ccc(Cl)c(-c3nc4cc(N(C)C)ccc4[nH]3)c2)c1 [Compound 2, N-[4-Chloro-3-(5-dimethylamino-1H-benzoimidazol-2-yl)-phenyl]-3,5-dimethoxy-benzamide, reference compound]
- tumor response on continuous dosing [6]: initially caused regression, followed by tumor regrowth
- sustained regressions (complete responses still present at end of study) ([5]; 100 mg/kg bid po, day 47): 0/8
- sustained regressions (complete regressions still present at end of study) [7]: 0/8

Compound: Cn1c(=O)n(-c2ccc(C(C)(C)C#N)cc2)c2c3cc(-c4cnc5ccccc5c4)ccc3ncc21 [Compound B, 2-methyl-2-[4-(3-methyl-2-oxo-8-quinolin-3-yl-2,3-dihydro-imidazo[4,5-c]quinolin-1-yl)-phenyl]-propionitrile]
- effect on tumor growth ([4]; 40 mg/kg qd, FIG. 7A): no effect on tumor growth compared to vehicle control
- time to endpoint (tumor volume >700 mm3) ([4]; 40 mg/kg qd, FIG. 7B): ~15 days

- IC50 [1]: 4 nM
- IC50 [2, 8]: 4 nM
Compound: CCC(C)(C)C(=O)O[C@H]1C[C@@H](C)C=C2C=C[C@H](C)[C@H](CC[C@@H]3C[C@@H](O)CC(=O)O3)[C@H]21 [Simvastatin, reference compound]
